Test results: US11926594B1, “6′-(3-bromophenyl)-2′-ethoxy-3,4′-bipyridine-3′-carbonitrile as an antioxidant compound” (KING FAISAL UNIVERSITY, priority 2023, dated 2024)

Assay: DPPH radical scavenging antioxidant test
Format: biochemical
Conditions: 517 nm; for Inhibition (radical scavenging inhibition): compound 3 μM in ethanol, 0.2 mL DPPH (0.75 mM), 30 minutes in the dark
Procedure: The antioxidant activity of 6′-(3-bromophenyl)-2′-ethoxy-3,4′-bipyridine-3′-carbonitrile was investigated by 2,2-diphenyl-1-picrylhydrazyl (DPPH) in vitro tests that employ vitamin C as the positive control.
The antioxidant properties of the 6′-(3-bromophenyl)-2′-ethoxy-3,4′-bipyridine-3′-carbonitrile compound were studied by adding 0.2 mL DPPH (0.75 mM)) to 6′-(3-bromophenyl)-2′-ethoxy-3,4′-bipyridine-3′-carbonitrile (3 μM) (4) in ethanol. After 30 minutes of incubation in the dark, the absorbance was read against a blank at 517 nm. Ascorbic acid (vitamin C) was used as standard antioxidants (positive control). A blank sample was prepared by 0.2 mL of DPPH in 3 mL ethanol. A negative control sample was run using ethanol instead of the sample. The radical scavenging inhibition was calculated using the following equation: […]

| Compound | antioxidant potential (DPPH) compared to vitamin C (DPPH in vitro test, vitamin C as positive control) | Inhibition (radical scavenging inhibition) |
| --- | --- | --- |
| CCOc1nc(-c2cccc(Br)c2)cc(-c2cccnc2)c1C#N [Product 4, 6′-(3-bromophenyl)-2′-ethoxy-3,4′-bipyridine-3′-carbonitrile] | high potential as an antioxidant compared to vitamin C | 48% |
| O=C1O[C@H]([C@@H](O)CO)C(O)=C1O [vit c, Ascorbic acid, reference compound] |  | 74% |
